Test results from PMC9234961 (Journal of Medicinal Chemistry, 2022).
Read-outs that look alike come from different tables or passages of the source.

How the values were obtained:
[1] = biological target: kinases (468) (Homo sapiens, UniProt Q9UKI8); conditions: kinase TLK1 (Entrez TLK1); compound concentration 1000 nM
[2] = biological target: kinases (468) (Homo sapiens, UniProt P00519); conditions: 1000 nM
[3] = biological target: kinases (468) (Homo sapiens, UniProt P07949, V804L); conditions: kinase RET(V804L) (Entrez RET); compound concentration 1000 nM
kinases (468) (Homo sapiens, UniProt P07949, V804L), sequence (P07949 29-1114 V804L): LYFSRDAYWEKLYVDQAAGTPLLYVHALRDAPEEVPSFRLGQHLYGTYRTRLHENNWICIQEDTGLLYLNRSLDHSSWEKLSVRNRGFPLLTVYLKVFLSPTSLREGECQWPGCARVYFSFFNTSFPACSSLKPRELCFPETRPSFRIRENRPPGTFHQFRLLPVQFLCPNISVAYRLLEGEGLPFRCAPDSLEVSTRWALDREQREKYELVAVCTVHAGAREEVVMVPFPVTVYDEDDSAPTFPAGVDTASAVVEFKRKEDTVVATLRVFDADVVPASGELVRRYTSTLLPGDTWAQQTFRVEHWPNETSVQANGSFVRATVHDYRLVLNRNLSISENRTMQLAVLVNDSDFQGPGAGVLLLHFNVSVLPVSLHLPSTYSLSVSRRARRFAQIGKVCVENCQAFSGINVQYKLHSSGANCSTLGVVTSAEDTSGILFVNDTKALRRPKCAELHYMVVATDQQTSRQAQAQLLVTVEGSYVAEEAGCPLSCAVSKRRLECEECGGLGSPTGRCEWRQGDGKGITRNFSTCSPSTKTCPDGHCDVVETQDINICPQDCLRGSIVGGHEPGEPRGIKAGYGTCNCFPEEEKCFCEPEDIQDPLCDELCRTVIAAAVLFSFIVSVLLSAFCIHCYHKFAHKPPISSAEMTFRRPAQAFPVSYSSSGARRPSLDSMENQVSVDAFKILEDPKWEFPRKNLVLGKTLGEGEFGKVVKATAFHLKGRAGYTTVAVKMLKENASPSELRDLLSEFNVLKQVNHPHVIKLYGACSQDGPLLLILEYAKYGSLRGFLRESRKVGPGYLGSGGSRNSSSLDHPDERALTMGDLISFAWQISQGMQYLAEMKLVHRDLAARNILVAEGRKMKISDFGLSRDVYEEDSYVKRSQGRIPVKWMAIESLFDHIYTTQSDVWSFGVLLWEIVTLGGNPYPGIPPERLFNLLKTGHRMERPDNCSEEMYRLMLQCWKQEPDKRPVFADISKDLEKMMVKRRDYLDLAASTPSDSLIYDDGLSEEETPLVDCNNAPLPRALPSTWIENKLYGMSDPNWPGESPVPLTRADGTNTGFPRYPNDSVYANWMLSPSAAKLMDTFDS

[4] = biological target: kinases (468) (Homo sapiens, UniProt P53671); conditions: LIMK2; 1000 nM
[5] = biological target: kinases (468) (Homo sapiens, UniProt P10721, T670I/V559D); conditions: KIT(V559D,T670I); 1000 nM
[6] = biological target: kinases (468) (Homo sapiens, UniProt Q6P2M8); conditions: CAMK1B (PNCK); 1000 nM
[7] = biological target: kinases (468) (Homo sapiens, UniProt Q07912); conditions: kinase TNK2 (Entrez TNK2); compound concentration 1000 nM
kinases (468) (Homo sapiens, UniProt Q07912), sequence (Q07912 whole entry): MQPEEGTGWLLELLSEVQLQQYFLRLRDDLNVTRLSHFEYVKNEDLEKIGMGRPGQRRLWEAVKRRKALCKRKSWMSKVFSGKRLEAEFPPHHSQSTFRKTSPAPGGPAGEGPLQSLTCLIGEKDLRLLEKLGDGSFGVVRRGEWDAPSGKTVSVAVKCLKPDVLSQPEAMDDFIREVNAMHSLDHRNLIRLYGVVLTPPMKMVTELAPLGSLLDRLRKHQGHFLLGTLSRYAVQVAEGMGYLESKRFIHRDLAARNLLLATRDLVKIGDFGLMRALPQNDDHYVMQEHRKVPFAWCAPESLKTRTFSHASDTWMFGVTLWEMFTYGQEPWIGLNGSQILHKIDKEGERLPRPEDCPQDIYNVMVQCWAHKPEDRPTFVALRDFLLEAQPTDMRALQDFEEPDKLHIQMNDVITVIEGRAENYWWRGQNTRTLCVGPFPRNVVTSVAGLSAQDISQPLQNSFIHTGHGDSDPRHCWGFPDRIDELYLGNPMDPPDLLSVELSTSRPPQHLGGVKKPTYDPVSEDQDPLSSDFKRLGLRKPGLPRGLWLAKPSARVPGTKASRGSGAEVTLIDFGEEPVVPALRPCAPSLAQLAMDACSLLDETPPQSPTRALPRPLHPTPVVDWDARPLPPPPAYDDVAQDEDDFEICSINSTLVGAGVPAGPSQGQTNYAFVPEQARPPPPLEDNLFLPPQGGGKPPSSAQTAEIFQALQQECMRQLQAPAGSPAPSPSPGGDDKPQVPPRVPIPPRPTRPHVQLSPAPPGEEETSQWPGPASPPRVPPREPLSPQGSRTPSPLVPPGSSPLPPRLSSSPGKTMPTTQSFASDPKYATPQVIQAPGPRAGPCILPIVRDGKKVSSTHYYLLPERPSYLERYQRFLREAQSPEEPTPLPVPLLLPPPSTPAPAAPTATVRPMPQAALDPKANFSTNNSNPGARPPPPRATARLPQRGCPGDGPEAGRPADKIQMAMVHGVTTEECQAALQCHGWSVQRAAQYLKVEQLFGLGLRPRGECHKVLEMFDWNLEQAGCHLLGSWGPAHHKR

[8] = biological target: kinases (468) (Homo sapiens, UniProt P37023); conditions: ACVRL1; 1000 nM
[9] = biological target: kinases (468) (Homo sapiens, UniProt P36888, D835V); conditions: FLT3(D835V); 1000 nM
[10] = biological target: kinases (468) (Homo sapiens, UniProt Q9BVS4); conditions: kinase RIOK2 (Entrez RIOK2); compound concentration 1000 nM
[11] = biological target: kinases (468) (Homo sapiens, UniProt P42336, I800L); conditions: PIK3CA(I800L); 1000 nM
[12] = biological target: kinases (468) (Homo sapiens, UniProt P36888, N841I); conditions: FLT3(N841I); 1000 nM
[13] = biological target: kinases (468) (Homo sapiens, UniProt P42336, E545A); conditions: PIK3CA(E545A); 1000 nM
[14] = biological target: kinases (468) (Homo sapiens, UniProt Q9BZL6); conditions: PRKD2; 1000 nM
[15] = biological target: kinases (468) (Homo sapiens, UniProt Q9UL54); conditions: kinase TAOK2 (Entrez TAOK2); compound concentration 1000 nM
[16] = biological target: kinases (468) (Homo sapiens, UniProt Q9H422); conditions: HIPK3; 1000 nM
[17] = biological target: kinases (468) (Homo sapiens, UniProt Q09013); conditions: DMPK; 1000 nM
[18] = biological target: kinases (468) (Homo sapiens, UniProt Q14680); conditions: MELK; 1000 nM
[19] = biological target: kinases (468) (Homo sapiens, UniProt P52564); conditions: MEK6 (MAP2K6); 1000 nM
[20] = biological target: kinases (468) (Homo sapiens, UniProt Q5S007); conditions: LRRK2; 1000 nM
[21] = biological target: kinases (468) (Homo sapiens, UniProt P57059); conditions: kinase SIK (Entrez SIK1); compound concentration 1000 nM
kinases (468) (Homo sapiens, UniProt P57059), sequence (P57059 whole entry): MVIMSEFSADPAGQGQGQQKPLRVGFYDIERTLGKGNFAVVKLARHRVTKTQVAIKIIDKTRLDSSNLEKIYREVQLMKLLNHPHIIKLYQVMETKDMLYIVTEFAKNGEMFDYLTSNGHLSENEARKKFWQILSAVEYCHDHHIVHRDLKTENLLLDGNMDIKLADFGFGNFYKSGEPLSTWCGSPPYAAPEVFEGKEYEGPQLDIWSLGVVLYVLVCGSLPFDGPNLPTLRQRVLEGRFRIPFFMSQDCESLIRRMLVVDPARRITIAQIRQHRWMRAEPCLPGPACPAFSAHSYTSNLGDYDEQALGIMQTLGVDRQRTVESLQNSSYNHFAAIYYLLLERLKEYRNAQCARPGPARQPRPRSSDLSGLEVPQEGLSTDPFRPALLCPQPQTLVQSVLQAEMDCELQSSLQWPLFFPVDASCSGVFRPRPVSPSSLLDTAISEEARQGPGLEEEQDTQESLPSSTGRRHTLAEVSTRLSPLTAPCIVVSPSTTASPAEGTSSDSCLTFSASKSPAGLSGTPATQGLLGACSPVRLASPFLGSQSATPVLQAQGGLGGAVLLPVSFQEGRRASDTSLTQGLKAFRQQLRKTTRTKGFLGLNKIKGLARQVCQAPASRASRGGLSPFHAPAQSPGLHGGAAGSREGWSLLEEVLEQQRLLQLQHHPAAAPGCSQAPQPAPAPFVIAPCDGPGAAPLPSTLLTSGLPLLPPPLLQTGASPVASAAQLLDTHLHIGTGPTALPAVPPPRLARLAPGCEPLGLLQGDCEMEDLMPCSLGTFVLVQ

[22] = biological target: kinases (468) (Homo sapiens, UniProt O76039); conditions: CDKL5; 1000 nM
kinases (468) (Homo sapiens, UniProt O76039), sequence (O76039 whole entry): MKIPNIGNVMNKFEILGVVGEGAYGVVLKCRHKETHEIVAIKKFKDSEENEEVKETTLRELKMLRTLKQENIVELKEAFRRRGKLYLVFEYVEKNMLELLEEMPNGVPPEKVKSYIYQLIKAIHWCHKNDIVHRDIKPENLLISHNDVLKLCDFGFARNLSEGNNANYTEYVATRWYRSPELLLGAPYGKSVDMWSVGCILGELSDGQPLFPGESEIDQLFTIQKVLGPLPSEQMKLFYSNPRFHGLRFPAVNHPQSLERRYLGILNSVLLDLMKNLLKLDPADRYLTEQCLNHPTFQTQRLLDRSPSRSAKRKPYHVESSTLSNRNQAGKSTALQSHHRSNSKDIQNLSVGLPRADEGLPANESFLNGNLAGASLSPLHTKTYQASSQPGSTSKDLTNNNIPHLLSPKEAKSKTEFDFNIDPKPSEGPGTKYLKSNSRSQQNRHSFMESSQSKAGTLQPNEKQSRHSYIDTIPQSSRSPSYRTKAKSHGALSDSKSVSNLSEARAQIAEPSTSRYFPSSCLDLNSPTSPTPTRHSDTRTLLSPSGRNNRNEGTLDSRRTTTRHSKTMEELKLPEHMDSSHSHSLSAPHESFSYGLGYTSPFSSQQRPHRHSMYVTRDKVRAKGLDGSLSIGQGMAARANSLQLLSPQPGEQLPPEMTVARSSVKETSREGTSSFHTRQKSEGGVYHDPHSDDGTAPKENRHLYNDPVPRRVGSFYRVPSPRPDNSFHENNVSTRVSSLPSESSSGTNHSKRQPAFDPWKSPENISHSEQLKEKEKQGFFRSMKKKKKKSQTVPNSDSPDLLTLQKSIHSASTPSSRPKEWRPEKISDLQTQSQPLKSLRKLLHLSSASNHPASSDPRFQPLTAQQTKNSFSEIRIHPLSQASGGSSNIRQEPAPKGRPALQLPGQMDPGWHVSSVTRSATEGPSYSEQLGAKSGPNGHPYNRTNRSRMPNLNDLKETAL

[23] = biological target: kinases (468) (Homo sapiens, UniProt O95819); conditions: MAP4K4; 1000 nM
[24] = biological target: kinases (468) (Homo sapiens, UniProt Q16288); conditions: kinase TRKC (Entrez NTRK3); compound concentration 1000 nM
[25] = biological target: kinases (468) (Homo sapiens, UniProt P35590); conditions: kinase TIE1 (Entrez TIE1); compound concentration 1000 nM
[26] = biological target: kinases (468) (Homo sapiens, UniProt P42336, M1043I); conditions: PIK3CA(M1043I); 1000 nM
[27] = biological target: kinases (468) (Homo sapiens, UniProt P51955); conditions: NEK2; 1000 nM
[28] = biological target: kinases (468) (Homo sapiens, UniProt P49137); conditions: MAPKAPK2; 1000 nM
kinases (468) (Homo sapiens, UniProt P49137), sequence (P49137 whole entry): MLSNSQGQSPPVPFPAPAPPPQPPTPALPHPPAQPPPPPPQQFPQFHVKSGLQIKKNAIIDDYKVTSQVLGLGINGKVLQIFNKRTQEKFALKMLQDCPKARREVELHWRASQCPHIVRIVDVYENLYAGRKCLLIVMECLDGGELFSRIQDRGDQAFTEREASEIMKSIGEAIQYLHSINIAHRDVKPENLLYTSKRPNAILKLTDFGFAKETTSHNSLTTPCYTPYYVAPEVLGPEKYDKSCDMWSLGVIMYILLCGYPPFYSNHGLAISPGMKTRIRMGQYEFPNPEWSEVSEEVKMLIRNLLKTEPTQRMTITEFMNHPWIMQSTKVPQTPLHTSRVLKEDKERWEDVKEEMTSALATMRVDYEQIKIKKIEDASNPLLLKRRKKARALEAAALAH

[29] = biological target: kinases (468) (Homo sapiens, UniProt Q04912); conditions: MST1R; 1000 nM
[30] = biological target: kinases (468) (Homo sapiens, UniProt Q9Y6M4); conditions: CSNK1G3; 1000 nM
[31] = biological target: kinases (468) (Homo sapiens, UniProt P00519, Y253F); conditions: ABL1(Y253F)-phosphorylated; 1000 nM
[32] = biological target: kinases (468) (Homo sapiens, UniProt O00238); conditions: BMPR1B; 1000 nM
kinases (468) (Homo sapiens, UniProt O00238), sequence (O00238 14-502): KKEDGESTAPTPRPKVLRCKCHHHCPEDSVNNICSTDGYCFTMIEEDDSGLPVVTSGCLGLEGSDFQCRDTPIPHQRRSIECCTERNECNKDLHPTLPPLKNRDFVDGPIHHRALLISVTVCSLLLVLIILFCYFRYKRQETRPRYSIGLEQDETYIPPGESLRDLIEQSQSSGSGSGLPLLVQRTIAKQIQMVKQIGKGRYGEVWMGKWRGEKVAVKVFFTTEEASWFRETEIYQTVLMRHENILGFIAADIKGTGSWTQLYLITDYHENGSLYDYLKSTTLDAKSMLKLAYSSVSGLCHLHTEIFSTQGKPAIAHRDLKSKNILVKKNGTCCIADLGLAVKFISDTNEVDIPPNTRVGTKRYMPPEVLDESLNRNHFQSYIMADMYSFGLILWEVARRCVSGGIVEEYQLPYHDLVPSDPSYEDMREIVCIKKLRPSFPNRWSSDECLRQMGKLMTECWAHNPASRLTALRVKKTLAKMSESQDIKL

[33] = biological target: kinases (468) (Homo sapiens, UniProt P08581, M1250T); conditions: MET(M1250T); 1000 nM
[34] = biological target: kinases (468) (Homo sapiens, UniProt P42336); conditions: PIK3CA; 1000 nM

SMILES: C[C@H]1C[C@@H](O)CN(c2ncc(Cl)c(Nc3ccc4c(c3)c3c(c(=O)n4C)OCC(F)(F)[C@H](C4CC4)N3)n2)C1 [CCT373566_9A]
- Percent Control [1]: 87%
- Percent Control ([2]; ABL1-nonphosphorylated): 92%
- Percent Control ([2]; ABL1-phosphorylated): 99%
- Percent Control [3]: 100%
- Percent Control [4]: 100%
- Percent Control [5]: 98%
- Percent Control [6]: 69%
- Percent Control [7]: 93%
- Percent Control [8]: 96%
- Percent Control [9]: 90%
- Percent Control [10]: 100%
- Percent Control [11]: 82%
- Percent Control [12]: 94%
- Percent Control [13]: 100%
- Percent Control [14]: 94%
- Percent Control [15]: 87%
- Percent Control [16]: 100%
- Percent Control [17]: 98%
- Percent Control [18]: 100%
- Percent Control [19]: 89%
- Percent Control [20]: 98%
- Percent Control [21]: 98%
- Percent Control [22]: 96%
- Percent Control [23]: 87%
- Percent Control [24]: 100%
- Percent Control [25]: 100%
- Percent Control [26]: 89%
- Percent Control [27]: 92%
- Percent Control [28]: 97%
- Percent Control [29]: 91%
- Percent Control [30]: 100%
- Percent Control [31]: 91%
- Percent Control [32]: 97%
- Percent Control [33]: 100%
- Percent Control [34]: 100%
